According to PubChem BioAssay (NCI):
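Protocol summary: plate cells (96-well), add compound at 5 concentrations, incubate 48 h, interpolate endpoints linearly. TGI: concentration producing complete growth inhibition.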

Key:
Assay in all cases: DTP human tumour cell line panel, 48 h
[1] = system: OVCAR-3 ovarian
[2] = system: HOP-92 NSCLC
[3] = system: TK-10 renal
[4] = system: MDA-MB-231 breast
[5] = system: SW-620 colon
[6] = system: HS 578T breast
[7] = system: SF-295 CNS
[8] = system: HL-60(TB) leukemia
[9] = system: MDA-N
[10] = system: OVCAR-5 ovarian
[11] = system: HCC-2998 colon
[12] = system: COLO 205 colon
[13] = system: RPMI-8226 leukemia
[14] = system: A498 renal
[15] = system: LOX IMVI melanoma
[16] = system: SK-MEL-5 melanoma
[17] = system: BT-549 breast
[18] = system: MOLT-4 leukemia
[19] = system: PC-3 prostate
[20] = system: K-562 leukemia
[21] = system: MALME-3M melanoma
[22] = system: A549 NSCLC
[23] = system: OVCAR-8 ovarian
[24] = system: HCT-116 colon
[25] = system: T-47D breast
[26] = system: CCRF-CEM leukemia
[27] = system: CAKI-1 renal
[28] = system: 786-0 renal
[29] = system: SR leukemia
[30] = system: KM12 colon
[31] = system: M14 melanoma
[32] = system: SF-268 CNS
[33] = system: IGROV1 ovarian
[34] = system: SK-MEL-2 melanoma
[35] = system: NCI-H226 lung
[36] = system: NCI-H460 lung
[37] = system: MCF7 breast
[38] = system: ACHN renal
[39] = system: SF-539 CNS
[40] = system: OVCAR-4 ovarian
[41] = system: NCI-H522 lung
[42] = system: NCI/ADR-RES ovarian
[43] = system: EKVX NSCLC
[44] = system: UACC-62 melanoma
[45] = system: SK-MEL-28 melanoma
[46] = system: MDA-MB-435
[47] = system: SNB-19 CNS
[48] = system: U251 CNS
[49] = system: UO-31 renal
[50] = system: SN12C renal
[51] = system: SNB-75 CNS
[52] = system: DU-145 prostate
[53] = system: RXF 393 renal
[54] = system: HCT-15 colon
[55] = system: UACC-257 melanoma
[56] = system: SK-OV-3 ovarian
[57] = system: NCI-H23 lung
[58] = system: HOP-62 NSCLC
[59] = system: HT29 colon

O=C1OC(C2Cc3ccc4ccccc4c3C2=O)c2ccccc21 (centres undefined)
TGI [1]: 98.1 µM
TGI [2]: > 100 µM
TGI [3]: > 100 µM
TGI [4]: > 100 µM
TGI [5]: > 100 µM
TGI [6]: 88.9 µM
TGI [7]: > 100 µM
TGI [8]: > 100 µM
TGI [9]: > 100 µM
TGI [10]: > 100 µM
TGI [11]: > 100 µM
TGI [12]: > 100 µM
TGI [13]: 93.3 µM
TGI [14]: > 100 µM
TGI [15]: > 100 µM
TGI [16]: 98.2 µM
TGI [17]: > 100 µM
TGI [18]: > 100 µM
TGI [19]: > 100 µM
TGI [20]: > 100 µM
TGI [21]: > 100 µM
TGI [22]: > 100 µM
TGI [23]: > 100 µM
TGI [24]: > 100 µM
TGI [25]: > 100 µM
TGI [26]: > 100 µM
TGI [27]: > 100 µM
TGI [28]: > 100 µM
TGI [29]: > 100 µM
TGI [30]: > 100 µM
TGI [31]: > 100 µM
TGI [32]: > 100 µM
TGI [33]: > 100 µM
TGI [34]: > 100 µM
TGI [35]: 49.7 µM
TGI [36]: > 100 µM
TGI [37]: > 100 µM
TGI [38]: > 100 µM
TGI [39]: 56.5 µM
TGI [40]: 65.3 µM
TGI [41]: > 100 µM
TGI [42]: > 100 µM
TGI [43]: > 100 µM
TGI [44]: > 100 µM
TGI [45]: > 100 µM
TGI [46]: > 100 µM
TGI [47]: 92.6 µM
TGI [48]: > 100 µM
TGI [49]: > 100 µM
TGI [50]: > 100 µM
TGI [51]: > 100 µM
TGI [52]: > 100 µM
TGI [53]: 49.5 µM
TGI [54]: > 100 µM
TGI [55]: > 100 µM

CCN(CC)CCNc1nc(N)c(C#N)c(C#N)c1C#N
TGI [1]: > 10 µM
TGI [2]: > 10 µM
TGI [3]: > 10 µM
TGI [4]: > 10 µM
TGI [5]: > 10 µM
TGI [6]: > 10 µM
TGI [7]: > 10 µM
TGI [8]: > 10 µM
TGI [9]: > 10 µM
TGI [10]: > 10 µM
TGI [11]: > 10 µM
TGI [12]: > 10 µM
TGI [13]: > 10 µM
TGI [14]: > 10 µM
TGI [56]: > 10 µM
TGI [15]: > 10 µM
TGI [16]: > 10 µM
TGI [17]: > 10 µM
TGI [18]: > 10 µM
TGI [57]: > 10 µM
TGI [19]: > 10 µM
TGI [20]: > 10 µM
TGI [21]: > 10 µM
TGI [22]: > 10 µM
TGI [23]: > 10 µM
TGI [24]: > 10 µM
TGI [25]: > 10 µM
TGI [58]: > 10 µM
TGI [26]: > 10 µM
TGI [27]: > 10 µM
TGI [28]: > 10 µM
TGI [30]: > 10 µM
TGI [31]: > 10 µM
TGI [32]: > 10 µM
TGI [33]: > 10 µM
TGI [35]: > 10 µM
TGI [36]: > 10 µM
TGI [37]: > 10 µM
TGI [38]: > 10 µM
TGI [59]: > 10 µM
TGI [39]: > 10 µM
TGI [40]: > 10 µM
TGI [41]: > 10 µM
TGI [42]: > 10 µM
TGI [43]: > 10 µM
TGI [44]: > 10 µM
TGI [45]: > 10 µM
TGI [46]: > 10 µM
TGI [47]: > 10 µM
TGI [48]: > 10 µM
TGI [49]: > 10 µM
TGI [50]: > 10 µM
TGI [51]: > 10 µM
TGI [52]: > 10 µM
TGI [53]: > 10 µM
TGI [54]: > 10 µM
TGI [55]: > 10 µM

O=C1NC(N2CCOCC2)=N/C1=C\c1ccco1
TGI [1]: > 100 µM
TGI [2]: > 100 µM
TGI [3]: > 100 µM
TGI [4]: > 100 µM
TGI [5]: > 100 µM
TGI [6]: > 100 µM
TGI [7]: > 100 µM
TGI [8]: > 100 µM
TGI [9]: > 100 µM
TGI [10]: > 100 µM
TGI [11]: > 100 µM
TGI [12]: > 100 µM
TGI [13]: > 100 µM
TGI [56]: > 100 µM
TGI [15]: > 100 µM
TGI [16]: > 100 µM
TGI [17]: > 100 µM
TGI [18]: > 100 µM
TGI [57]: > 100 µM
TGI [19]: > 100 µM
TGI [22]: > 100 µM
TGI [23]: > 100 µM
TGI [24]: > 100 µM
TGI [25]: > 100 µM
TGI [58]: > 100 µM
TGI [26]: > 100 µM
TGI [27]: > 100 µM
TGI [28]: > 100 µM
TGI [29]: > 100 µM
TGI [30]: > 100 µM
TGI [31]: > 100 µM
TGI [32]: > 100 µM
TGI [33]: > 100 µM
TGI [34]: > 100 µM
TGI [35]: > 100 µM
TGI [37]: > 100 µM
TGI [38]: > 100 µM
TGI [59]: > 100 µM
TGI [39]: > 100 µM
TGI [40]: > 100 µM
TGI [41]: > 100 µM
TGI [42]: > 100 µM
TGI [43]: > 100 µM
TGI [44]: > 100 µM
TGI [45]: > 100 µM
TGI [46]: > 100 µM
TGI [47]: > 100 µM
TGI [48]: > 100 µM
TGI [49]: > 100 µM
TGI [50]: > 100 µM
TGI [51]: > 100 µM
TGI [52]: > 100 µM
TGI [53]: > 100 µM
TGI [54]: > 100 µM
TGI [55]: > 100 µM

Clc1ccc(-c2nnc3sc4nc5ccccc5c-4nn23)c(Cl)c1
TGI [1]: > 100 µM
TGI [2]: 68.8 µM
TGI [3]: > 100 µM
TGI [4]: > 100 µM
TGI [5]: > 100 µM
TGI [6]: > 100 µM
TGI [7]: > 100 µM
TGI [8]: > 100 µM
TGI [9]: 82.6 µM
TGI [10]: > 100 µM
TGI [11]: > 100 µM
TGI [12]: > 100 µM
TGI [14]: > 100 µM
TGI [56]: > 100 µM
TGI [15]: > 100 µM
TGI [16]: > 100 µM
TGI [17]: 93.8 µM
TGI [18]: > 100 µM
TGI [57]: > 100 µM
TGI [19]: > 100 µM
TGI [20]: > 100 µM
TGI [21]: > 100 µM
TGI [22]: > 100 µM
TGI [23]: > 100 µM
TGI [24]: > 100 µM
TGI [25]: > 100 µM
TGI [58]: > 100 µM
TGI [26]: > 100 µM
TGI [27]: > 100 µM
TGI [28]: > 100 µM
TGI [29]: > 100 µM
TGI [30]: > 100 µM
TGI [31]: > 100 µM
TGI [32]: > 100 µM
TGI [34]: 82.2 µM
TGI [35]: > 100 µM
TGI [36]: > 100 µM
TGI [37]: > 100 µM
TGI [38]: > 100 µM
TGI [59]: > 100 µM
TGI [39]: > 100 µM
TGI [40]: > 100 µM
TGI [41]: > 100 µM
TGI [42]: > 100 µM
TGI [43]: > 100 µM
TGI [44]: > 100 µM
TGI [45]: > 100 µM
TGI [46]: > 100 µM
TGI [47]: > 100 µM
TGI [48]: > 100 µM
TGI [49]: > 100 µM
TGI [50]: > 100 µM
TGI [51]: > 100 µM
TGI [52]: > 100 µM
TGI [53]: > 100 µM
TGI [54]: > 100 µM
TGI [55]: > 100 µM
